This passage reports TGI and GI50 results from PubChem BioAssay (NCI).

What all share (assay): NCI anticancer screen, dose series, 48 h
Assay [1] deals with CAKI-1 renal.
For assay [2], the system named is HCT-15 colon.
For assay [3], the system named is RXF 393 renal.
In assay [4] the test system is MCF7 breast.
Assay [5] concerns A498 renal.
Assay [6] relates to MDA-MB-435.
For assay [7], the system named is OVCAR-8 ovarian.
The subject of assay [8] is PC-3 prostate.
The subject of assay [9] is OVCAR-4 ovarian.
Assay [10] relates to SR leukemia.

Several values for one entry are separate records, joined by “and”; a condition that tells them apart may be missing. Equal values may be shown once.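 Protocol summary: plate cells (96-well), add compound at 5 concentrations, incubate 48 h, interpolate endpoints linearly. The concentration for 50% growth inhibition is given as GI50. At the TGI there is no net growth.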 Where only a bound is given, the exact number is not on record here.

For the compound `O=Cc1cccc2ccc3ccccc3c12`, the TGI in assay [1] was 46.5 µM; in assay [2], > 100 µM; in assay [3], 61 µM; in assay [4], 37.4 µM; in assay [5], 62.7 µM; in assay [6], 49.6 µM. Besides, the results for the TGI in [7] and in assay [8] were > 100 µM and 55.5 µM, respectively.

As to `CC(=O)OCC12CN(C#N)C3C4COC(CC41)C1(C(=O)N(C)c4ccccc41)C32` (centres undefined), the TGI amounted to 49.6 µM in [9]; 82.9 µM in assay [1]; 35.5 µM in assay [2]; 38.3 µM in [3]; 68.3 µM in [10]; 41.4 µM in [4]. The TGI in assay [6] is > 100 µM; in assay [7], 55 µM; in [8] it was > 100 µM.

With `COC(=O)C1CSC(c2csc(CCN)n2)=N1` (centres undefined), the TGI in assay [9], in assay [1], in assay [2], in assay [3], in assay [10] and in assay [7] was > 100 µM each time.

Turning to `N#CC(C#N)=CNCCN1CCN(C=C(C#N)C#N)CC1`, the TGI in assay [9], in assay [1], in assay [2], in [10], in assay [4] and in [5] was > 100 µM in each case. Further, the TGI in assay [6], in [7] and in [8] was > 100 µM in each case.

For the compound `O=C(CN1CCN(Cc2ccccc2Cl)CC1)NC1CC(=O)c2c(Br)sc(Br)c21` (centres undefined), the GI50 was 18.9 µM in [9]; 19.9 µM in assay [1]; 18 µM in assay [2]; 18.1 µM in [4]; 20.5 µM in [5]; 21.5 µM in assay [6]. The GI50 in assay [7] is 24.8 µM; in [8] it was 16.1 µM. The TGI came out at 34.4 µM in assay [9]; 37.6 µM in [1]; 34.1 µM in assay [2]; 33.8 µM in assay [4]; 35.4 µM in [5]; 52.5 µM in assay [6]. In addition, the TGI is 54.8 µM in assay [7] and 34.6 µM in assay [8].

As to `COc1cc2c3c(n(CCCN4CCNCC4)c(=O)c2cc1OC)-c1cc2c(cc1C3=O)OCO2`, the GI50 in [9] is 4.05 µM; in assay [1] it was 0.128 µM; in assay [2], 0.296 µM; in assay [3], 0.811 µM; in assay [4] it was 0.0119 µM; in assay [5], 0.281 µM. Besides, the results for the GI50 in assay [6], in assay [7] and in assay [8] were 3.27 µM, 0.0803 µM and 0.94 µM, respectively. Moreover, the TGI amounted to 12.4 µM in assay [9]; 2.02 µM in assay [1]; 5.14 µM in assay [2]; 4.89 µM in assay [3]; 7.66 µM in assay [4]; 4.44 µM in assay [5]. Moreover, the TGI was found to be 11.3 µM in [6], 1.06 µM in assay [7] and 10.1 µM in assay [8].

On to `COC(=O)Oc1nn(C(=O)OC)c(=O)c2ccccc12`, for which the TGI in assay [1], in assay [2], in [10], in assay [4], in assay [6] and in assay [7] was > 100 µM each time. Also, the TGI in assay [8] is > 100 µM.

`CNS(=O)(=O)OCC1OC(n2cnc3cncnc32)C(O)C1O` (centres undefined): the GI50 in [9], in [1], in assay [2], in assay [3], in assay [4] and in [5] was > 100 µM each time. Moreover, the GI50 in [6], in [7] and in [8] was > 100 µM throughout. For the same compound, the TGI in [9], in assay [1], in [2], in assay [3], in assay [4] and in assay [5] was > 100 µM each time. For the same compound, the TGI in assay [6], in [7] and in assay [8] was > 100 µM in each case.

Consider `O=C1/C(=C/c2ccc([N+](=O)[O-])s2)Oc2cc(Cl)ccc21`, for which the GI50 in assay [2] was 0.276 µM; in assay [3], 1.04 µM; in [10], 0.303 µM; in [4], 0.944 µM; in [5] it was 29.8 µM; in assay [7] it was 0.469 µM. Also, the GI50 in assay [8] is 0.387 µM. Moreover, the TGI in assay [2] is 1.12 µM; in assay [3], 2.63 µM; in [10] it was 1.24 µM; in assay [4], > 100 µM; in [5], > 85.2 µM; in assay [7] it was 2.59 µM. Besides, the TGI in assay [8] was determined as 1.75 µM.

In the case of `NC1N=Nc2ccccc21` (centres undefined), the TGI in assay [9], in assay [1], in [2], in assay [3], in assay [10] and in assay [7] was > 100 µM in each case.

On to `COC(=O)C1=COC2OC3C(C(C)O)C(=O)OC34C=CC1C24` (centres undefined), for which the TGI in assay [9], in assay [1], in [2], in assay [4], in assay [5] and in assay [6] was > 100 µM each time. Moreover, the TGI in [7] is 47.2 µM; in assay [8], > 100 µM.

On to `COc1cc2c(c(O)c1Cl)C(=O)c1c(O)cc(C[C@H](C)O)cc1[C@H]2[C@H]1c2cc(C[C@H](C)O)cc(O)c2C(=O)c2c1cc(OC)c(Cl)c2O`, for which the TGI in assay [9] was 75 µM and > 100 µM; in [1] it was 11.4 µM and > 100 µM; in assay [2] it was 75 µM and > 100 µM; in [10], 75 µM and > 100 µM; in assay [4], 75 µM and 94.4 µM; in [6], 16 µM and 98.3 µM. Further, the TGI in assay [7] is 75 µM and > 100 µM; in assay [8], 75 µM and > 100 µM.

Regarding `COc1cccc(C=O)c1C(=O)c1cc(O)ccc1O`, the TGI in assay [9] is 35.7 µM; in [1], > 57.4 µM; in [2], 41.3 µM; in [3] it was 32.2 µM; in assay [10], 24.1 µM; in [5], > 63.7 µM. In assay [7], the TGI worked out at 46.5 µM.
